Measurements from patent publication US5877204A, “Compounds containing a michael-acceptor, especially maleimide or maleic acid derivatives, directly or indirectly linked to a chromophore and their use in long lasting sunscreen compositions” (Vanguard Medica Limited, priority 1994, dated 1999).
Where “and” joins values, the source holds several entries; their conditions need not be identical. Equal entries are not always repeated. Where two headings read alike, the source gives them in different places.

Key:
[1] = Ames tests (mutagenicity and toxicity), with or without rat liver metabolic activation system S9; type: cell-based
Source text: Among the important criteria for topically applied sunscreens, safety in use has the highest priority. It was thus necessary to investigate the mutagenicity of the maleimide and maleamic acid derivatives of sunscreens. Six compounds of the present invention were chosen as representative of the main classes of sunscreen and submitted for Ames tests.

[2] = UV absorption of the chromophore (λmax, ε); type: physicochemical; parameters: key to λmax: λmax in nm; settings: for ε: at λmax, in M-1·cm-1 (unit assumed)
Source text: This can sometimes be a problem since if the change in λmax is too great, the chromophore may no longer absorb light in the UVA or UVB wavelength range.
An example of this change is 4-aminobenzophenone which has a λmax of 318 nm which is in the UVB range. When the amino group is replaced by a maleamic acid group, the λmax of the chromophore shifts to 306 nm which is still within the UVB range but when the amino group is replaced by a maleimide residue, the λmax falls to 258 nm. This is outside the range of UVB although there is a restoration of UVB activity when the maleimide is reacted with cysteine as it would be when applied to the skin (λmax=293 nm). The changes are easily rationalised on the basis of conjugative effects but the effects of attaching Michael acceptors to the various chromophores which may be used cannot always easily be predicted. This problem can be overcome to a large extent simply by separating the chromophore from the Michael acceptor using a spacer. Particularly useful compounds therefore include those in which the group R is C1 -C8 alkyl-YZ, C2 -C8 alkenyl-YZ or C2 -C8 alkynyl-YZR and especially those in which Y is O. Compounds in which a hexyloxy linker is used (that is, R is (CH2)6 OZ) are especially preferred.

DNA = settings: cited from earlier work
[3] = background, known sunscreen absorbers; cited from earlier work
[4] = Reaction of maleimide derivatives with L-cysteine ethyl ester (tlc); settings: room temperature
Description: In order to underpin the principle of reaction of maleimido derivatives with the cysteine thiol groups, two model reactions were studied. Thus the reactions between L-cysteine ethyl ester and N-phenylmaleimide and N-(4-benzoylphenyl)maleimide were carried out. In each case, the reaction produced the diastereoisomeric product mixtures in reasonable yields at room temperature. All starting maleimides had reacted within 30 minutes (tlc). The two products were isolated and characterised.
The mildness and rapidity of these reactions indicate that the maleimido groups confer the ability for reaction with the nucleophilic groups of keratin.

horn hoof keratin = assay: Substantivity test with powdered horn-hoof keratin (uv absorptivity); type: binding, various animals
Source text: Keratin prepared from the horns and hooves of various animals is commercially available, and this was used in a similar way to the hair (above). The keratin was finely powdered and stirred with a solution of the maleimido compound and its substantivity estimated by uv absorptivity measurements.

hair keratin = assay: Substantivity test with human hair (uv assay of supernatant); type: binding
Description: Initial tests were conducted with human hair specially cleaned and prepared to provide as near to a standard substrate as possible. The method adopted utilised the reduction in ultra-violet absorptivity in the supernatant solution in contact with hair when the compound under test was absorbed into the hair surface. Standard and control solutions were employed. […] Similar tests with hair have been quoted in the patent literature as evidence, and as a standard test, for substantivity of sunscreens and other cosmetics.

[5] = effect of attaching Michael acceptor to 4-aminobenzophenone chromophore
[6] = characterisation in the Examples, solvent not stated
[7] = 1.0000 g horn hoof keratin, single tests (0.4360 g and 0.4741 g maleimide added)
[8] = horn hoof keratin, average of the two tests
[9] = uv assay, 1.0000 g hair, single tests (0.4520 g and 0.4670 g maleimide added)

Structure (SMILES): O=C(c1ccccc1)c1ccc(OCCCCCCN2C(=O)C=CC2=O)cc1 [Example 12, N-[6-(4-benzoylphenoxy)-hexyl]-maleimide]
- Toxicity ([1]; +S9): 800 μG plate^-1
- Toxicity ([1]; -S9): 200 μG plate^-1
- λmax ([2]; CH2 Cl2): 286 nm
- ε ([2]; CH2 Cl2): 16590

Structure (SMILES): Nc1ccc(C(=O)c2ccccc2)cc1 [4-aminobenzophenone, reference compound]
- λmax [2, 5]: 318 nm

Structure (SMILES): COc1c2ccoc2cc2oc(=O)ccc12 [5-methoxypsoralen (5-MOP), 5-methoxypsoralen]
- photobinding to DNA (DNA): photobinds to DNA
- photocarcinogenicity (DNA): photocarcinogen
- photomutagenicity (DNA): photomutagen

Structure (SMILES): NC(CSC1CC(=O)N(c2ccc(C(=O)c3ccccc3)cc2)C1=O)C(=O)O (centres unmarked) [maleimide reacted with cysteine]
- λmax [2, 5]: 293 nm

Structure (SMILES): O=C(O)/C=C\C(=O)NCCCCCCOc1ccc(C(=O)c2ccccc2)cc1 [Example 11, N-[6-(4-benzoylphenoxy)-hexyl]-maleamic Acid]
- Toxicity ([1]; +S9): 2500 μG plate^-1
- Toxicity ([1]; -S9): 2500 μG plate^-1
- λmax ([2]; CH2 Cl2): 285 nm
- ε ([2]; CH2 Cl2): 16047

Structure (SMILES): O=C(O)/C=C\C(=O)Nc1ccc(C(=O)O)cc1 [Example 1, N-(4-carboxyphenyl)maleamic Acid]
- Toxicity ([1]; +S9): 5000 μG plate^-1
- Toxicity ([1]; -S9): 5000 μG plate^-1

Structure (SMILES): CCCCC(CC)COC(=O)C=Cc1ccc(OC)cc1 (centres unmarked) [2-ethylhexyl-4'-methoxycinnamate]
- λmax [3]: 308 nm

Structure (SMILES): COC(=O)c1ccc(N2C(=O)C=CC2=O)cc1 [Example 8, N-(4-methoxycarbonylphenyl)maleimide]
- ε ([2]; solvent not stated): 15844
- λmax [2, 6]: 245 nm

Structure (SMILES): O=C(O)c1ccc(N2C(=O)C=CC2=O)cc1 [Example 2, N-(4-carboxyphenyl)maleimide]
- Toxicity ([1]; +S9): 500 μG plate^-1
- Toxicity ([1]; -S9): 500 μG plate^-1

Structure (SMILES): O=C(O)/C=C\C(=O)Nc1ccc(C(=O)c2ccccc2)cc1 [Example 3, N-(4-benzoylphenyl)maleamic Acid]
- Toxicity ([1]; +S9): 2500 μG plate^-1
- Toxicity ([1]; -S9): 2500 μG plate^-1
- Mutagenicity ([1]; Ames test, with or without S9): Negative
- ε ([2]; solvent not stated): 20560
- λmax [2, 6]: 306 nm
- λmax [2, 5]: 306 nm

Structure (SMILES): COc1ccc(C(=O)CC(=O)c2ccc(C(C)(C)C)cc2)cc1 [4-^t butyl-4'-methoxydibenzoylmethane]
- λmax [3]: 355 nm

Structure (SMILES): COC(=O)c1ccc(NC(=O)/C=C\C(=O)O)cc1 [Example 7, N-(4-methoxycarbonylphenyl)maleamic Acid]
- ε ([2]; solvent not stated): 16013
- λmax [2, 6]: 294 nm

Structure (SMILES): CCCCOC(=O)c1ccc(NC(=O)/C=C\C(=O)O)cc1 [Example 9, N-(4-n-butyloxycarbonylphenyl)maleamic Acid]
- ε ([2]; solvent not stated): 15806
- λmax [2, 6]: 294 nm

Structure (SMILES): O=C(c1ccccc1)c1ccc(N2C(=O)C=CC2=O)cc1 [Example 4, N-(4-benzoylphenyl)maleimide]
- Toxicity ([1]; +S9): 100 μG plate^-1
- Toxicity ([1]; -S9): 40 μG plate^-1
- time within which all starting maleimide had reacted [4]: ≤ 30 min
- λmax [2, 5]: 258 nm

Structure (SMILES): O=C(O)/C=C/c1ccc(N2C(=O)C=CC2=O)cc1 [Example 6, N-[4-(2-carboxy-(E)-ethenyl)phenyl]maleimide]
- Toxicity ([1]; +S9): 200 μG plate^-1
- Toxicity ([1]; -S9): 200 μG plate^-1

Structure (SMILES): O=C(O)/C=C\C(=O)Nc1ccc(/C=C/C(=O)O)cc1 [Example 5, N-[4-(2-carboxy-(E)-ethenyl)phenyl]maleamic Acid]
- Toxicity ([1]; +S9): 5000 μG plate^-1
- Toxicity ([1]; -S9): 5000 μG plate^-1

Structure (SMILES): O=C1C=CC(=O)N1c1ccccc1 [N-phenylmaleimide]
- time within which all starting maleimide had reacted [4]: ≤ 30 min
- Substantivity (horn hoof keratin; [7]): 22.2% and 21.1%
- Wt maleimide absorbed (horn hoof keratin; [7]): 0.0968 g and 0.1001 g
- Average substantivity (horn hoof keratin; [8]): 21.7%
- Average wt maleimide absorbed (horn hoof keratin; [8]): 0.0985 g
- Average substantivity (hair keratin; hair, average of the two tests): 24.5%
- Average wt maleimide absorbed (hair keratin; hair, average of the two tests): 0.1129 g
- reduction in ultra-violet absorptivity of supernatant in contact with hair (hair keratin; initial tests, in words): considerable reduction in absorptivity
- Substantivity (hair keratin; [9]): 18.5% and 30.4%
- Wt maleimide absorbed (hair keratin; [9]): 0.0837 g and 0.1421 g

Structure (SMILES): CCCCOC(=O)c1ccc(N2C(=O)C=CC2=O)cc1 [Example 10, N-(4-n-butyloxycarbonylphenyl)maleimide]
- ε ([2]; solvent not stated): 15563
- λmax ([2]; characterisation in Example 10, unit not given): 245

Structure (SMILES): CCN1C(=O)C=CC1=O
- Toxicity ([1]; +S9): 50 μG plate^-1
- Toxicity ([1]; -S9): 25 μG plate^-1
